These are literature values, as cited in patent US20090011014A1, “Tablet Formulation for Sustained Drug-Release” (UNIVERSITE DE MONTREAL, priority 2004, published 2009).

For data set [1] the following is noted: 400-mg substituted amylose tablet containing 10% of drug; example 5 and FIG. 16 of U.S. Pat. No. 5,879,707.

Counter-ions that a name gives are not always drawn. Like-named read-outs stand apart in the source and are kept apart here.

As to `CC(=O)Nc1ccc(O)cc1` [Acetaminophen], the “Influence of pH on solubility” value (physiological conditions) was “not influenced by pH”.
With `CC(NC(C)(C)C)C(=O)c1cccc(Cl)c1` (stereo not shown) [bupropion hydrochloride], under “hydrochloride”, the “Solubility, U.S.P. XXIII descriptive term” value was “freely soluble”.
As for `O=C([O-])c1ccccc1O.[Na+]` [Sodium salicylate], the “Solubility, U.S.P. XXIII descriptive term” value is recorded as “freely soluble”. Also, the “Time for release of 95% of the drug” value in data set [1] is 6.5 h.
